Here are results for 13 compounds from US20250230165A1, “HETEROCYCLIC COMPOUNDS FOR USE IN THE TREATMENT OF CANCER” (ARTIOS PHARMA LIMITED, priority 2021, published 2025).

The target in the experiment is T1, Human Polθ polymerase domain (aa1820-2590) (Homo sapiens, UniProt O75417).
T1 construct: Human Polθ polymerase domain (aa1820-2590) was expressed in E. coli; made in house; host or cells: E. coli
T1 sequence (O75417 1820-2590): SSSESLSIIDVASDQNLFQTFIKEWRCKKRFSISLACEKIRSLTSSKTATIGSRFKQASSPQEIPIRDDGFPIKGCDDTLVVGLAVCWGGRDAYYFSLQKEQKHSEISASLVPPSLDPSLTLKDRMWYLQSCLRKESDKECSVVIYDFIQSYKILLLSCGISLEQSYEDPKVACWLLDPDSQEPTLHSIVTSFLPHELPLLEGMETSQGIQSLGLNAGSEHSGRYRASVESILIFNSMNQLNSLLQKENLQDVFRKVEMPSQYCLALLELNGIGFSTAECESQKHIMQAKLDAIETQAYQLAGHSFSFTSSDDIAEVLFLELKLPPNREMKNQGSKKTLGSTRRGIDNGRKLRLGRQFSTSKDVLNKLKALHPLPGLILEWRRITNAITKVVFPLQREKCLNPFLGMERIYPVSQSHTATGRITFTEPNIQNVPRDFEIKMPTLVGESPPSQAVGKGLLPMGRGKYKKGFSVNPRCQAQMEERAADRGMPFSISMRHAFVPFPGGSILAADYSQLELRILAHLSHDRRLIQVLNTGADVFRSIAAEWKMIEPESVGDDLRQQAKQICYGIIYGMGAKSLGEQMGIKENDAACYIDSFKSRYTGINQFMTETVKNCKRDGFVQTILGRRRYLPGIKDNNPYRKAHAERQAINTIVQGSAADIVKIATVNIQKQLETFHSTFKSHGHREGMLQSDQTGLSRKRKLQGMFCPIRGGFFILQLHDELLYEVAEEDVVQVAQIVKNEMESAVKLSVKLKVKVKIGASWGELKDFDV
In words: Polθ Polymerase Domain Kinact/KI Assay (PicoGreen). It counts as biochemical. Particulars: 0.8 nM Polθ, 100 nM DNA substrate, kobs vs [I] fit for 2-step covalent inhibitor. The gist of the method:
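Time-dependent inhibition was followed by quenching reactions with EDTA at points up to 60 min, then staining product DNA with PicoGreen fluorescence. Reactions held 0.8 nM E. coli-expressed Polθ, 100 nM primed DNA substrate and […] at pH 7.5, 1% DMSO. kobs versus inhibitor concentration gave Kinact and KI.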
In turn, `C=C(CN(C)C)C(=O)N1CC(c2cccc(CN3C[C@H]4CC(=O)N(c5cc(C(F)(F)F)cc(C)n5)[C@@H]4C(=O)N(C)c4cccc(F)c43)c2)C1` [Example 152, (3aR, 11aS)-5-(3-(1-(2-((dimethylamino)methyl)acryloyl)azetidin-3-yl)benzyl)-6-fluoro-10-methyl-1-(6-methyl-4-(trifluoromethyl)pyridin-2-yl)-1,3a,4,5,10,11a-hexahydro-2H-benzo[b]pyrrolo[2,3-f][1,4]diazocine-2,11(3H)-dione] returned a Kinact/Kl of 5.05e+06 M⁻¹ s⁻¹. In the case of `C=CC(=O)N1Cc2nc(CN3C[C@H]4CC(=O)N(c5cc(C(F)(F)F)cc(C)n5)[C@@H]4C(=O)N(C)c4cccc(C)c43)ccc2[C@H]1CC#N` (racemic) [Example 319a, 2-((S/R)-6-acryloyl-2-(((3aR,11aS)-6,10-dimethyl-1-(6-meth-yl-4-(trifluorometh-yl)pyridin-2-yl)-2,11-dioxo-1,2,3,3a,4,10,11,11a-octahydro-5H-benzo [b]pyrrolo[2,3-][1,4]diazocin-5-yl)meth-yl)-6,7-dihydro-5H-pyrrolo[3,4-b]pyr-idin-5-yl)acetonitrile], the Kinact/Kl worked out at 2.17e+06 M⁻¹ s⁻¹. `C=CC(=O)N1Cc2ncc(CN3C[C@H]4CC(=O)N(c5cc(C(F)(F)F)cc(C)n5)[C@@H]4C(=O)N(C)c4cccc(C)c43)cc2[C@H]1CC#N` (racemic) [Example 320a, 2-((R/S)-6-acryloyl-3-(((3aR,11aS)-6,10-dimethyl-1-(6-meth-yl-4-(trifluorometh-yl)pyridin-2-yl)-2,11-dioxo-1,2,3,3a, 4,10,11,11a-octa-hydro-5H-benzo[b]pyrrolo[2,3-f][1,4]diazocin-5-yl)meth-yl)-6,7-dihydro-5H-pyrrolo[3,4-b]pyr-idin-5-yl)acetonitrile]: the Kinact/Kl amounted to 1.37e+06 M⁻¹ s⁻¹. On to `C=CC(=O)N1CC2(CN(CCN3C[C@H]4CC(=O)N(c5cc(C(F)(F)F)cc(C)n5)[C@@H]4C(=O)N(C)c4cccc(Cl)c43)CCN2)C1` [Example 33, (3aR,11aS)-5-(2-(2-acryloyl-2,5,8-triazaspiro[3.5]nonan-8-yl)ethyl)-6-chloro-10-methyl-1-(6-methyl-4-(trifluoromethyl)pyridin-2-yl)-1,3a,4,5, 10,11a-hexahydro-2H-benzo[b]pyrrolo [2,3-f][1,4]diazocine-2,11(3H)-dione], for which the Kinact/Kl worked out at 1.23e+06 M⁻¹ s⁻¹.

In the case of `C=C(CN(C)C)C(=O)N1CCn2cc(CN3C[C@H]4CC(=O)N(c5cc(C(F)(F)F)cc(C)n5)[C@@H]4C(=O)N(C)c4cccc(Cl)c43)nc2C1` [Example 159], the Kinact/Kl was 3.07e+06 M⁻¹ s⁻¹. Consider `C=CC(=O)N1CC[C@@H](O)[C@H](N(C)CCN2C[C@H]3CC(=O)N(c4cc(C(F)(F)F)cc(C)n4)[C@@H]3C(=O)N(C)c3cccc(Cl)c32)C1` (relative stereo) [Example 113, (3aR,11aS)-5-(2-(((rel-trans)-1-acryloyl-4-hydroxypiperidin-3-yl)(methyl)amino)ethyl)-6-chloro-10-methyl-1-(6-methyl-4-(trifluoromethyl)pyridin-2-yl)-1,3a,4,5,10,11a-hexahydro-2H-benzo[b]pyrrolo[2,3-f][1,4]diazocine-2,11(3H)-dione], for which the Kinact/Kl was determined as 1.72e+06 M⁻¹ s⁻¹.

In turn, `C=C(CN(C)C)C(=O)N1CC[C@H](COCCN2C[C@H]3CC(=O)N(c4cc(C(F)(F)F)cc(C)n4)[C@@H]3C(=O)N(C)c3cccc(C)c32)C1` [Example 181, (3aR,11aS)-5-(2-(((S)-1-(2-((dimeth-ylamino)methyl)-acryloyl)pyrrolidin-3-yl)methoxy)eth-yl)-6,10-dimethyl-1-(6-methyl-4-(trifluoromethyl)-pyridin-2-yl)-1,3a,4,5,10,11a-hexahydro-2H-benzo[b]pyrrolo [2,3-f][1,4]diazo-cine-2,11(3H)-dione] gave a Kinact/Kl of 2.26e+06 M⁻¹ s⁻¹. For the compound `C=CC(=O)N1Cc2ccc(CN3C[C@H]4CC(=O)N(c5cc(C(F)(F)F)cc(C)n5)[C@@H]4C(=O)N(C)c4cccc(F)c43)cc2C1` [Example 130, (3aR,11aS)-5-((2-acryloylisoindolin-5-yl)methyl)-6-fluoro-10-methyl-1-(6-methyl-4-(trifluoromethyl)pyridin-2-yl)-1,3a,4,5,10,11a-hexahydro-2H-benzo[b]pyrrolo[2,3-f][1,4]diazocine-2,11(3H)-dione], the Kinact/Kl is 710000 M⁻¹ s⁻¹. For the compound `C=CC(=O)N1CC(N(C)CCCN2C[C@H]3CC(=O)N(c4cc(C(F)(F)F)cc(C)n4)[C@@H]3C(=O)N(C)c3cccc(Cl)c32)C1` [Example 138, (3aR,11aS)-5-(3-((1-acryloylazetidin-3-yl)(methyl)amino)propyl)-6-chloro-10-methyl-1-(6-methyl-4-(trifluoromethyl)pyridin-2-yl)-1,3a,4,5,10,11a-hexahydro-2H-benzo[b]pyrrolo[2,3-f][1,4]diazocine-2,11(3H)-dione], the Kinact/Kl was 1.08e+06 M⁻¹ s⁻¹.

As for `C=CC(=O)N1CC(N2CCN(CCN3C[C@H]4CC(=O)N(c5cc(C(F)(F)F)cc(C)n5)[C@@H]4C(=O)N(C)c4cc(F)cc(F)c43)CC2)C1` [Example 16, (3aR,11aS)-5-(2-(4-(1-acryloylazetidin-3-yl)piperazin-1-yl)ethyl)-6,8-difluoro-10-methyl-1-(6-methyl-4-(trifluoromethyl)pyridin-2-yl)-1,3a,4,5,10,11a-hexahydro-2H-benzo[b]pyrrolo[2,3-f][1,4]diazocine-2,11(3H)-dione], the Kinact/Kl turned out to be 130000 M⁻¹ s⁻¹. Under `Cc1cc(C(F)(F)F)cc(N2C(=O)C[C@@H]3CN(Cc4cc(F)c(NC(=O)/C=C/CN(C)C)c(F)c4)c4c(Cl)cccc4N(C)C(=O)[C@H]32)n1` [Example 309, (E)-N-(4-(((3aR,11aS)-6-chloro-10-methyl-1-(6-methyl-4-(trifluoromethyl)pyridin-2-yl)-2,11-dioxo-1,2,3,3a,4,10,11,11a-octahydro-5H-benzo[b]pyrrolo[2,3-f][1,4]diazocin-5-yl)methyl)-2,6-difluorophenyl)-4-(dimethylamino)but-2-enamide] stands 1.02e+06 M⁻¹ s⁻¹; under `C=CC(=O)N1Cc2ccc(CN3C[C@H]4CC(=O)N(c5cc(C(F)(F)F)cc(C)n5)[C@@H]4C(=O)N(C)c4cccc(C)c43)cc2C1` [Example 313, (3aR,11aS)-5-((2-acryloylisoindolin-5-yl)methyl)-6,10-dimethyl-1-(6-meth-yl-4-(trifluorometh-yl)pyridin-2-yl)-1,3a,4,5,10,11a-hexahydro-2H-benzo [b]pyrrolo[2,3-f] [1,4]diazocine-2,11(3H)-dione], 660000 M⁻¹ s⁻¹; under `C=CC(=O)N1CC(N2CCN(CCN3C[C@H]4CC(=O)N(c5cc(C(F)(F)F)cc(C)n5)[C@@H]4C(=O)N(C)c4cc(F)ccc43)CC2)C1` [Example 15, (3aR,11aS)-5-(2-(4-(1-acryloylazetidin-3-yl)piperazin-1-yl)ethyl)-8-fluoro-10-methyl-1-(6-methyl-4-(trifluoromethyl)pyridin-2-yl)-1,3a,4,5,10,11a-hexahydro-2H-benzo[b]pyrrolo[2,3-f][1,4]diazocine-2,11(3H)-dione], 73000 M⁻¹ s⁻¹.
